Results: ChEMBL document CHEMBL3785027 (Eur J Med Chem, 2016)

Key:
Assay type in all cases: functional, cell-based
[1] = Cytotoxicity against human KBVIN cells after 72 hrs by sulforhodamine B colorimetric assay
A549 = test: Cytotoxicity against human A549 cells after 72 hrs by sulforhodamine B colorimetric assay; conditions: A549, 72 h
KB = test: Cytotoxicity against human KB cells after 72 hrs by sulforhodamine B colorimetric assay

Compound	IC50 [1]	IC50 (A549)	IC50 (KB)
CC[C@@]1(OC(=O)CN/C(Cc2ccc(OC)cc2)=N/S(=O)(=O)c2ccc(C)cc2)C(=O)OCc2c1cc1n(c2=O)Cc2cc3ccccc3nc2-1	26.3 nM	–	–
CCc1c2c(nc3ccc(O)cc13)-c1cc3c(c(=O)n1C2)COC(=O)[C@@]3(CC)OC(=O)CN/C(Cc1ccc(OC)cc1)=N/S(=O)(=O)c1ccc(C)cc1	28.2 nM	21.8 nM	4.5 nM
CC[C@@]1(OC(=O)CN/C(Cc2ccc(OC)cc2)=N/S(=O)(=O)c2ccc(Cl)cc2)C(=O)OCc2c1cc1n(c2=O)Cc2cc3ccccc3nc2-1	24.8 nM	16.5 nM	73 nM
CC[C@@]1(OC(=O)CCN/C(Cc2ccc(OC)cc2)=N\S(=O)(=O)c2ccc(C)cc2)C(=O)OCc2c1cc1n(c2=O)Cc2cc3ccccc3nc2-1	527 nM	88.9 nM	622 nM
CC[C@@]1(OC(=O)CN/C(Cc2ccc(OC)cc2)=N/S(=O)(=O)c2ccc(C)cc2)C(=O)OCc2c1cc1n(c2=O)Cc2cc3c([N+](=O)[O-])cccc3nc2-1	4580 nM	6270 nM	7040 nM
CC[C@@]1(OC(=O)CN/C(Cc2ccc(OC)cc2)=N/S(=O)(=O)c2ccc(C)cc2)C(=O)OCc2c1cc1n(c2=S)Cc2cc3ccccc3nc2-1	159 nM	140 nM	233 nM
CC[C@@]1(OC(=O)CN/C(Cc2ccc(OC)cc2)=N/S(=O)(=O)CC)C(=O)OCc2c1cc1n(c2=O)Cc2cc3ccccc3nc2-1	78.6 nM	48.1 nM	64.2 nM
CC[C@@]1(OC(=O)CN/C(Cc2ccc(C)cc2)=N/S(=O)(=O)c2ccc(C)cc2)C(=O)OCc2c1cc1n(c2=O)Cc2cc3ccccc3nc2-1	27.5 nM	17.4 nM	73.9 nM
CC[C@@]1(OC(=O)CN/C(Cc2ccc(OC)cc2)=N/S(=O)(=O)c2cccnc2)C(=O)OCc2c1cc1n(c2=O)Cc2cc3ccccc3nc2-1	123 nM	76.5 nM	93.8 nM
CC[C@@](O)(C(=O)NCCN/C(Cc1ccc(OC)cc1)=N/S(=O)(=O)c1ccc(C)cc1)c1cc2n(c(=O)c1COC(C)=O)Cc1cc3ccccc3nc1-2	947 nM	688 nM	937 nM
CCc1c2c(nc3ccccc13)-c1cc3c(c(=O)n1C2)COC(=O)[C@@]3(CC)OC(=O)C(C)N/C(Cc1ccc(Cl)cc1)=N/S(=O)(=O)c1ccc(C)cc1 (stereo partly specified)	16 nM	12.9 nM	13.3 nM
CC[C@@]1(OC(=O)CN/C(Cc2ccc(Cl)cc2)=N/S(=O)(=O)c2ccc(C)cc2)C(=O)OCc2c1cc1n(c2=O)Cc2cc3ccccc3nc2-1	64.8 nM	54.9 nM	100 nM
CCc1c2c(nc3ccccc13)-c1cc3c(c(=O)n1C2)COC(=O)[C@@]3(CC)OC(=O)CN/C(Cc1ccc(OC)cc1)=N/S(=O)(=O)c1ccc(C)cc1	10.1 nM	6.8 nM	9.4 nM
CC[C@@]1(OC(=O)CN/C(Cc2ccc(OC)cc2)=N/S(=O)(=O)c2ccc(C)cc2)C(=O)OCc2c1cc1n(c2=O)Cc2cc3cc(O)ccc3nc2-1	101 nM	64 nM	63.1 nM
CC[C@@]1(OC(=O)CN/C(Cc2ccc(OC)cc2)=N/S(=O)(=O)c2ccc3ccccc3c2)C(=O)OCc2c1cc1n(c2=O)Cc2cc3ccccc3nc2-1	25.6 nM	16.2 nM	68.7 nM
CCc1c2c(nc3ccccc13)-c1cc3c(c(=O)n1C2)COC(=O)[C@@]3(CC)OC(=O)CN/C(Cc1ccc(OC)cc1)=N/S(C)(=O)=O	25.8 nM	19.8 nM	16.7 nM
CCc1c(OP(=O)(O)OC)ccc2nc3c(cc12)Cn1c-3cc2c(c1=O)COC(=O)[C@@]2(CC)OC(=O)CN/C(Cc1ccc(OC)cc1)=N/S(=O)(=O)c1ccc(C)cc1	305 nM	344 nM	141 nM
CC[C@@]1(OC(=O)CN/C(Cc2ccc(OC)cc2)=N/S(=O)(=O)N(C)C)C(=O)OCc2c1cc1n(c2=O)Cc2cc3ccccc3nc2-1	45.3 nM	40.8 nM	66.5 nM

Compound	IC50 [1]	IC50 (A549)	IC50 (KB)
CCCCS(=O)(=O)/N=C(\Cc1ccc(OC)cc1)NCC(=O)O[C@]1(CC)C(=O)OCc2c1cc1n(c2=O)Cc2cc3ccccc3nc2-1	43.5 nM	34.9 nM	54.2 nM
CC[C@@]1(OC(=O)CN/C(C[Si](C)(C)C)=N/S(=O)(=O)c2ccc(C)cc2)C(=O)OCc2c1cc1n(c2=O)Cc2cc3ccccc3nc2-1	39.9 nM	30.2 nM	57.8 nM
CC[C@@]1(OC(=O)CN/C(Cc2ccccc2)=N/S(=O)(=O)c2ccc(C)cc2)C(=O)OCc2c1cc1n(c2=O)Cc2cc3c([N+](=O)[O-])cccc3nc2-1	9130 nM	8270 nM	9050 nM
CC[C@@]1(OC(=O)CN/C(Cc2ccc(OC)cc2)=N/S(=O)(=O)c2ccc(C)cc2)C(=O)OCc2c1cc1n(c2=O)Cc2cc3cccc([N+](=O)[O-])c3nc2-1	10700 nM	13900 nM	11300 nM
CC[C@@]1(OC(=O)CCCN/C(Cc2ccc(OC)cc2)=N\S(=O)(=O)c2ccc(C)cc2)C(=O)OCc2c1cc1n(c2=O)Cc2cc3ccccc3nc2-1	955 nM	448 nM	830 nM
CC[C@@]1(OC(=O)CN/C(Cc2ccc(OC)cc2)=N/S(=O)(=O)c2ccc(C)cc2)C(=O)OCc2c1cc1n(c2=O)C(OC)c2cc3ccccc3nc2-1 (stereo partly specified)	6880 nM	7310 nM	7560 nM
CCc1c2c(nc3ccccc13)-c1cc3c(c(=O)n1C2)COC(=O)[C@@]3(CC)OC(=O)C(C)N/C(Cc1ccc(OC)cc1)=N/S(C)(=O)=O (stereo partly specified)	98.2 nM	61 nM	95.2 nM
CC[C@@]1(OC(=O)CN/C(Cc2ccc(OC)cc2)=N/S(C)(=O)=O)C(=O)OCc2c1cc1n(c2=O)Cc2cc3ccccc3nc2-1	63.5 nM	54 nM	105 nM
CCc1c2c(nc3ccccc13)-c1cc3c(c(=O)n1C2)COC(=O)[C@@]3(CC)OC(=O)C(C)N/C(Cc1ccc(OC)cc1)=N/S(=O)(=O)c1ccc(C)cc1 (stereo partly specified)	22.7 nM	16 nM	84.2 nM
CC[C@@]1(OC(=O)C(C)N/C(Cc2ccc(OC)cc2)=N/S(=O)(=O)c2ccc(C)cc2)C(=O)OCc2c1cc1n(c2=S)Cc2cc3ccccc3nc2-1 (stereo partly specified)	151 nM	86.9 nM	109 nM
CC[C@@]1(OC(=O)CN/C(Cc2ccc(OC)cc2)=N/S(=O)(=O)c2ccc(C)cc2)CC(=O)OCc2c1cc1n(c2=O)Cc2cc3ccccc3nc2-1	263 nM	83.6 nM	232 nM
CCc1c2c(nc3ccccc13)-c1cc3c(c(=O)n1C2)COC(=O)[C@@]3(CC)OC(=O)CN/C(Cc1ccccc1)=N/S(=O)(=O)c1ccc(C)cc1	18.5 nM	7.2 nM	89.5 nM
CC[C@@]1(OC(=O)CN/C(Cc2ccc(OC)cc2)=N/S(=O)(=O)c2cccs2)C(=O)OCc2c1cc1n(c2=O)Cc2cc3ccccc3nc2-1	32.5 nM	37.5 nM	55 nM
CCc1c2c(nc3ccccc13)-c1cc3c(c(=O)n1C2)COC(=O)[C@@]3(CC)OC(=O)C(C)N/C(Cc1ccccc1)=N/S(=O)(=O)c1ccc(C)cc1 (stereo partly specified)	19.5 nM	10.2 nM	83.6 nM
CC[C@@]1(OC(=O)CN/C(Cc2ccc(OC)cc2)=N/S(=O)(=O)c2ccc([N+](=O)[O-])cc2)C(=O)OCc2c1cc1n(c2=O)Cc2cc3ccccc3nc2-1	14.9 nM	14.9 nM	14.9 nM
CC[C@@]1(OC(=O)CN/C(Cc2ccc(OC)cc2)=N/S(=O)(=O)c2ccc(F)cc2)C(=O)OCc2c1cc1n(c2=O)Cc2cc3ccccc3nc2-1	22.5 nM	14.1 nM	16.9 nM
CC[C@@]1(OC(=O)CN/C(Cc2ccc(OC)cc2)=N/S(=O)(=O)c2ccc(OC)cc2)C(=O)OCc2c1cc1n(c2=O)Cc2cc3ccccc3nc2-1	22.2 nM	31.9 nM	51.6 nM
CCc1c2c(nc3ccc(OC(=O)N4CCC(N5CCCCC5)CC4)cc13)-c1cc3c(c(=O)n1C2)COC(=O)[C@]3(O)CC [IRINOTECAN]	> 20000 nM	9480 nM	9830 nM
